These compounds were tested against T1, BTK (Homo sapiens, UniProt Q06187) (assay: BTK degradation activity test in Mino cells). Details: 16 h incubation, Western blot or Elisa.
T1 construct: endogenous in cells; host or cells: Mino cells
Format: cell-based
Procedure: Mino cell line cells were seeded at 500,000 to 1,000,000 cells/well in a 6-well plate. The compounds were diluted to different concentrations and added to the plate, and after 16 h of incubation, cells were harvested. After lysing the cells, the total protein concentration in each well was determined using the BCA method. The amount of BTK was determined using Western blot or Elisa method. The amount of undegraded BTK protein at each drug concentration was compared with the amount of BTK protein in the blank control group to calculate the degradation rate. The degradation curve was drawn based on the degradation rate at each concentration, and the half degradation concentration (DC50) was calculated by fitting.

T1 sequence (Q06187 whole entry): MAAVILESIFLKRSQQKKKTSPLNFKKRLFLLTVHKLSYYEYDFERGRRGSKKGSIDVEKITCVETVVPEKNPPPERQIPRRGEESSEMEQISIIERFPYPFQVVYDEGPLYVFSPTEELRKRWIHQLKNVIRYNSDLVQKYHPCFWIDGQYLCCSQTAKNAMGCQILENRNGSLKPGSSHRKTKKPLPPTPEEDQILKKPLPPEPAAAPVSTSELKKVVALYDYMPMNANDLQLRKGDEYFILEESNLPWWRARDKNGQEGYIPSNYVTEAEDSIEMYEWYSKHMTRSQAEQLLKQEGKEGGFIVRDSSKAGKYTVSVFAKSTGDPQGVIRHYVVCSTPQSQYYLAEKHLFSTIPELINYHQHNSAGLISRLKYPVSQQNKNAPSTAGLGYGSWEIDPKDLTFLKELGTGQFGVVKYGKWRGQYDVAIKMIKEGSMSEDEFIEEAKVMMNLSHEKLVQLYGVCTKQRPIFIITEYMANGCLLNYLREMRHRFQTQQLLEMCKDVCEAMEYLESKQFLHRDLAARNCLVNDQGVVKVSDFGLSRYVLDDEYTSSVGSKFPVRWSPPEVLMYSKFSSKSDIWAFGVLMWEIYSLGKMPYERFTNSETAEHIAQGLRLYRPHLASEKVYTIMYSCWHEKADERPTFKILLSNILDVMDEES

DC50, < 1 nM:
Cc1cc(C#CCN2CCN(c3ccc(Nc4nc(N5CCC[C@@H](N6CCN(C)C6=O)C5)nnc4C(N)=O)cc3F)CC2)ccc1C(=O)NC1CCC(=O)NC1=O (stereo partly drawn) [Compound 226, 5-((4-(4-(3-(4-((2,6-dioxopiperidin-3-yl)carbamoyl)-3-methylphenyl)propan-2-yn-1-yl)piperazin-1-yl)-3-fluorophenyl)amino)-3-((R)-3-(3-methyl-2-oxoimidazolidin-1-yl)piperidin-1-yl)-1,2,4-triazin-6-carboxamide]
CN1C(=O)N(C2CCCN(c3nnc(C(N)=O)c(Nc4ccc(C5CCN(CC6CCN(c7ccc8c(c7)C(=O)N(C7CCC(=O)NC7=O)C8=O)CC6)CC5)cc4)n3)C2)CC12CC2 (stereo not drawn) [Compound 068, 5-((4-(1-((1-(2-(2,6-dioxopiperidin-3-yl)-1,3-dioxoisoindol-5-yl)piperidin-4-yl)methyl)piperidin-4-yl)phenyl)amino)-3-(3-(4-methyl-5-oxo-4,6-diazaspirocyclo[2.4]heptan-6-yl)piperidin-1-yl)-1,2,4-triazin-6-carboxamide]
CN1CCN([C@@H]2CCCN(c3nnc(C(N)=O)c(Nc4ccc(C5CCN(C[C@H]6CCN(c7ccc8c(c7)C(=O)N(C7CCC(=O)NC7=O)C8=O)C6)CC5)c(F)c4)n3)C2)C1=O (stereo partly drawn) [Compound 158, 5-((4-(1-(((3R)-1-(2-(2,6-dioxopiperidin-3-yl)-1,3-dioxoisoindolin-5-yl)pyrrolidin-3-yl)methyl)piperidin-4-yl)-3-fluorophenyl)amino)-3-((R)-3-(3-methyl-2-oxoimidazolin-1-yl)piperidin-1-yl)-1,2,4-triazin-6-carboxamide]
CN1CCN(C2CC3CC2N(c2nnc(C(N)=O)c(Nc4ccc(C5(C)CCN(C6CCN(c7ccc8c(c7)C(=O)N(C7CCC(=O)NC7=O)C8=O)CC6)CC5)cc4)n2)C3)C1=O (stereo not drawn) [Compound 104, 5-((4-(1′-(2-(2,6-dioxopiperidin-3-yl)-1,3-dioxoisoindol-5-yl)-4-methyl-[1,4′-bipiperidin]-4-yl)phenyl)amino)-3-(6-(3-methyl-2-oxoimidazolin-1-yl)-2-azabicyclo[2.2.1]heptan-2-yl)-1,2,4-triazin-6-carboxamide]
CN1CCN(C2CCCN(c3nnc(C(N)=O)c(Nc4ccc(C5(C)CCN(C6CN(c7ccc8c(c7)C(=O)N(C7CCC(=O)NC7=O)C8=O)C6)CC5)cc4)n3)C2)C1=O (stereo not drawn) [Compound 079, 5-((4-(1-(1-(2-(2,6-dioxopiperidin-3-yl)-1,3-dioxoisoindol-5-yl)azetidin-3-yl)-4-methylpiperidin-4-yl)phenyl)amino)-3-(3-(3-methyl-2-oxoimidazolin-1-yl)piperidin-1-yl)-1,2,4-triazin-6-carboxamide]
CC1(c2ccc(Nc3nc(N4CCCC(N5CCN(C6COC6)C5=O)C4)cnc3C(N)=O)cc2)CCN(C2CN(c3ccc4c(c3)CN(C3CCC(=O)NC3=O)C4=O)C2)CC1 (stereo not drawn) [Compound 014, 3-((4-(1-(1-(2-(2,6-dioxopiperidin-3-yl)-1-oxoisoindol-5-yl)azetidin-3-yl)-4-methylpiperidin-4-yl)phenyl)amino)-5-(3-(3-(oxetan-3-yl)-2-oxoimidazolin-1-yl)piperidin-1-yl)pyrazin-2-carboxamide]
NC(=O)c1ncc(N2CCCC(N3CCN(C4CCCC4)C3=O)C2)nc1Nc1ccc2c(c1)CCN(CC1CN(c3ccc4c(c3)C(=O)N(C3CCC(=O)NC3=O)C4=O)C1)C2 (stereo not drawn) [Compound 033, 5-(3-(3-cyclopentyl-2-oxoimidazolin-1-yl)piperidin-1-yl)-3-((2-((1-(2-(2,6-dioxopiperidin-3-yl)-1,3-dioxoisoindol-5-yl)azetidin-3-yl)methyl)-1,2,3,4-tetrahydroisoquinolin-6-yl)amino)pyrazin-2-carboxamide]
CN1CCN(C2CC3CC2N(c2nnc(C(N)=O)c(Nc4ccc5c(c4)CCN(CC4CCN(c6ccc7c(c6)C(=O)N(C6CCC(=O)NC6=O)C7=O)CC4)C5)n2)C3)C1=O (stereo not drawn) [Compound 107, 5-((2-((1-(2-(2,6-dioxopiperidin-3-yl)-1,3-dioxoisoindol-5-yl)piperidin-4-yl)methyl)-1,2,3,4-tetrahydroisoquinolin-6-yl)amino)-3-(6-(3-methyl-2-oxoimidazolin-1-yl)-2-azabicyclo[2.2.1]heptan-2-yl)-1,2,4-triazin-6-carboxamide]
NC(=O)c1ncc(N2CCCC(N3CCN(C4CCCC4)C3=O)C2)nc1Nc1ccc(C2CCN(CC3CCN(c4cc5c(cc4F)C(=O)N(C4CCC(=O)NC4=O)C5=O)C3)CC2)cc1 (stereo not drawn) [Compound 052, 5-(3-(3-cyclopentyl-2-oxoimidazolin-1-yl)piperidin-1-yl)-3-((4-(1-((1-(2-(2,6-dioxopiperidin-3-yl)-6-fluoro-1,3-dioxoisoindolin-5-yl)pyrrolidin-3-yl)methyl)piperidin-4-yl)phenyl)amino)pyrazin-2-carboxamide]
CN1CCN([C@@H]2CCCN(c3nnc(C(N)=O)c(Nc4ccc(N5CCN(C[C@H]6CCN(c7ccc(N8CCC(=O)NC8=O)cc7)C6)CC5)c(F)c4)n3)C2)C1=O [Compound 151, 5-((4-(4-(((R)-1-(4-(2,4-dioxotetrahydropyrimidin-1(2H)-yl)phenyl)pyrrolidin-3-yl)methyl)piperazin-1-yl)-3-fluorophenyl)amino)-3-((R)-3-(3-methyl-2-oxoimidazolin-1-yl)piperidin-1-yl)-1,2,4-triazin-6-carboxamide]
NC(=O)c1nnc(N2CCCC(N3CCN(C4CCCCC4)C3=O)C2)nc1Nc1ccc(C2CCN(CC3CCN(c4ccc5c(c4)C(=O)N(C4CCC(=O)NC4=O)C5=O)CC3)CC2)cc1 (stereo not drawn) [Compound 061, 3-(3-(3-cyclohexyl-2-oxoimidazolin-1-yl)piperidin-1-yl)-5-((4-(1-((1-(2-(2,6-dioxopiperidin-3-yl)-1,3-dioxoisoindol-5-yl)piperidin-4-yl)methyl)piperidin-4-yl)phenyl)amino)-1,2,4-triazin-6-carboxamide]
CCN1CCN(C2CCCN(c3nnc(C(N)=O)c(Nc4ccc(C5CCN(CC6CCN(c7ccc8c(c7)C(=O)N(C7CCC(=O)NC7=O)C8=O)CC6)CC5)cc4)n3)C2)C1=O (stereo not drawn) [Compound 054, 5-((4-(1-((1-(2-(2,6-dioxopiperidin-3-yl)-1,3-dioxoisooctyl-5-yl)piperidin-4-yl)methyl)piperidin-4-yl)phenyl)amino)-3-(3-(3-ethyl-2-oxyimidazolin-1-yl)piperidin-1-yl)-1,2,4-triazin-6-carboxamide]
CN1CCN([C@@H]2CCCN(c3nnc(C(N)=O)c(Nc4ccc(N5CCN(C[C@@H]6CCN(c7ccc(C(=O)N[C@H]8CCC(=O)NC8=O)nc7)C6)CC5)c(F)c4)n3)C2)C1=O [Compound 154, 5-((4-(4-(((S)-1-(6-(((S)-2,6-dioxopiperidin-3-yl)carbamoyl)pyridin-3-yl)pyrrolidin-3-yl)methyl)piperazin-1-yl)-3-fluorophenyl)amino)-3-((R)-3-(3-methyl-2-oxoimidazolin-1-yl)piperidin-1-yl)-1,2,4-triazin-6-carboxamide]
CN1CCN([C@@H]2CCCN(c3nnc(C(N)=O)c(Nc4ccc(N5CCN(CC#Cc6ccc(NC7CCC(=O)NC7=O)c7ocnc67)CC5)c(F)c4)n3)C2)C1=O (stereo partly drawn) [Compound 229, 5-((4-(4-(3-(7-((2,6-dioxopiperidin-3-yl)amino)benzo[d]oxazol-4-yl)propan-2-yn-1-yl)piperazin-1-yl)-3-fluorophenyl)amino)-3-((R)-3-(3-methyl-2-oxoimidazolidin-1-yl)piperidin-1-yl)-1,2,4-triazin-6-carboxamide]
CN1CCN([C@@H]2CCCN(c3nnc(C(N)=O)c(Nc4ccc(N5CCN(CC6CCN(c7ccc(NC8CCC(=O)NC8=O)nc7)C6)CC5)c(F)c4)n3)C2)C1=O (stereo partly drawn) [Compound 200, 5-((4-(4-((1-(6-((2,6-dioxopiperidin-3-yl)amino)pyridin-3-yl)pyrrolidin-3-yl)methyl)piperazin-1-yl)-3-fluorophenyl)amino)-3-((R)-3-(3-methyl-2-oxoimidazolidin-1-yl)piperidin-1-yl)-1,2,4-triazin-6-carboxamide]
CN1CCN([C@@H]2CCCN(c3nnc(C(N)=O)c(Nc4ccc(N5CCN(C[C@@H]6CCN(c7ccc8c(c7)C(=O)N(C7CCC(=O)NC7=O)C8=O)C6)CC5)c(Cl)c4)n3)C2)C1=O (stereo partly drawn) [Compound 159, 5-((3-chloro-4-(4-(((3S)-1-(2-(2,6-dioxopiperidin-3-yl)-1,3-dioxoisoindolin-5-yl)pyrrolidin-3-yl)methyl)piperazin-1-yl)phenyl)amino)-3-((R)-3-(3-methyl-2-oxoimidazolidin-1-yl)piperidin-1-yl)-1,2,4-triazin-6-carboxamide]
NC(=O)c1nnc(N2CCCC(N3CCN(c4ccccc4)C3=O)C2)nc1Nc1ccc(C2CCN(CC3CCN(c4ccc5c(c4)C(=O)N(C4CCC(=O)NC4=O)C5=O)CC3)CC2)cc1 (stereo not drawn) [Compound 064, 5-((4-(1-((1-(2-(2,6-dioxopiperidin-3-yl)-1,3-dioxoisoindol-5-yl)piperidin-4-yl)methyl)piperidin-4-yl)phenyl)amino)-3-(3-(2-oxo-3-phenylimidazolin-1-yl)piperidin-1-yl)-1,2,4-triazin-6-carboxamide]
NC(=O)c1nnc(N2CC3CC(N4CC5CCCN5C4=O)C2C3)nc1Nc1ccc(C2CCN(CC3CCN(c4ccc5c(c4)C(=O)N(C4CCC(=O)NC4=O)C5=O)CC3)CC2)cc1 (stereo not drawn) [Compound 074, 5-((4-(1-((1-(2-(2,6-dioxopiperidin-3-yl)-1,3-dioxoisoindol-5-yl)piperidin-4-yl)methyl)piperidin-4-yl)phenyl)amino)-3-(6-(3-oxotetrahydro-1H-pyrrolo[1,2-c]imidazol-2(3H)-yl)-2-azabicyclo[2.2.1]heptan-2-yl)-1,2,4-triazin-6-carboxamide]

Source: patent US20240360146A1, “BRUTON'S TYROSINE KINASE AND MUTANT DEGRADER, COMPOSITION AND APPLICATION THEREOF” (HANGZHOU HEALZEN THERAPEUTICS CO., LTD., priority 2021, published 2024)
